In patent publication US20220264883A1, “IMIDAZOTHIAZOLE COMPOUNDS AND METHODS FOR TREATING PLANT NEMATODE INFECTIONS” (The Governing Council of the University of Toronto, priority 2019, published 2022):
Where two headings read alike, the source gives them in different places.

Assays:
Assay type in all cases: in vivo
[1] = tested on: D. rerio; test: Danio rerio (zebrafish) embryo dose-response experiments; conditions: non-target system; embryos, 24 hours exposure
Procedure: Zebrafish chemical assays were performed similarly to previously described methods^63. In brief, fish were maintained at 28.5° C. on a 14/10 hour light/dark cycle and staged according to hours post fertilization (hpf). For each biological replicate, eggs from LT fish (AB/Tubingen strain) were collected at 4 hpf. At 24 hpf, embryos were arrayed in 24 well plates, 10 per well. In 2 ml tubes, 4 μl of chemical dissolved in DMSO at the appropriate concentration was added to 800 μl of water and then vortexed for 30 s intensively. Water was removed from the embryos in the wells and 800 μl of chemical-treated water was transferred to each of the wells. The DMSO control wells contained DMSO alone. The final DMSO concentration in every well was 0.5% (v/v). […] The embryos were incubated in the chemicals for 24 hours and scored for death and toxicity at 48 hpf. Toxicity was defined as the embryos showing developmental defects such as a curved body, reduced body size, skin whiteness, and heart edema. “Relative viability” was calculated by dividing the number of viable and properly developed embryos in the treatment wells by the average number of viable and properly developed embryos across six DMSO control wells. Three biological replicates were performed for each dose-response experiment, and the relative viability values were averaged across the three replicates.

[2] = tested on: C. elegans anthelmintic/nematicide-resistant mutants; test: whole plant or invertebrate; conditions: Caenorhabditis elegans
Procedure: Forty microliters of an HB101 bacterial suspension in liquid NGM (see above) was added to each well of a 96-well flat-bottom culture plate, after which approximately 25 synchronized L1 worms, in 10 μl of M9 buffer (see ref. 59 for the recipe), were added to each well. The synchronized L1 worms were obtained from an embryo preparation performed the previous day (see ref. 59 for the protocol). For the L1 assays, 0.5 μl of chemical solution (or DMSO alone) was immediately added to the wells using a multichannel pipette, the final DMSO concentration is 1% (v/v). The worms were incubated for 3 days at 20° C. and the number of viable animals was counted. […] Although the counts were performed after 3 days of incubation in the chemical, it was noted that the L1s were dead within 24 hours of the addition of the chemicals. For the L2/L3 assays, the worms were incubated in the absence of chemical for 1 day at 20° C. until they reached the L2/L3 stage, at which point chemical was added as described above. The worms were then allowed to incubate for 2 days at 20° C. and the number of viable animals was counted as described for the L1 assay. For the L4 assays, the worms were incubated for 2 days at 20° C. before the addition of chemicals. The L4-stage worms were then incubated in chemical for an additional day before quantifying the number of viable animals. The adult assays were performed the same way as the L4 assays, however HT115 E. coli carrying the empty dsRNA expressing vector L4440 was used in place of HB101 and the worms were cultured at 25° C. as opposed to 20° C. for the entirety of the experiment. The HT115 suspension was made by concentrating a bacterial culture, with an OD600 of ˜ 0.8, five-fold with liquid NGM containing 1 mM IPTG and 100 μg/ml carbenicillin. The HT115 cells were induced with 1 mM IPTG for one hour before concentrating with NGM.
The dose-response experiments for the anthelmintic/nematicide-resistant mutants were carried out as described for the L1 dose-response assays. One notable exception is the aldicarb-resistant strain PR1152. This strain grows slowly, and so the viability counts were performed 5 days after addition of the chemical, as opposed to 3 days, to allow the DMSO control worms to reach adulthood.
At least three biological replicates were performed for each dose-response assay. For each biological replicate, two technical replicates were performed and the numbers of viable animals for each technical replicate were combined (i.e. ˜50 worms assayed per concentration). The number of viable worms at each concentration was divided by the corresponding DMSO control value to give the “relative viability” for each concentration. The “relative viability” values were then averaged across the biological replicates. LC50 values were calculated using Graphpad Prism. The concentration values were log-transformed and a four-parameter logistic curve was fitted to the dose-response data by non-linear regression, from which the LC50 values were extracted.

[3] = tested on: M. incognita; test: Meloidogyne incognita infectivity assays (tomato roots in soil); conditions: 45 μM in soil, 8 weeks, eggs per mg root relative to DMSO control
Procedure: An M. incognita population originally collected from grape (Vitis vinifera) in Parlier, Calif., was used for all experiments, and they were maintained on tomato plants (Solanum lycopersicum ‘Rutgers’) as previously described^73. Infective J2 juveniles were collected as described in^73. For the infectivity assays, 90 grams of soil (1:1 sand:loam mix) was added to each cell of several 6-cell plastic garden packs. The soil was drenched with 18 mL of deionized water containing dissolved chemical or DMSO alone. 2,500 infective J2 juveniles were then added to the soil in 2 mL of deionized water, for a total water volume of 20 mL. The final concentration of the chemicals in water was 45 μM. The DMSO concentration varied from 0.1% to 0.8% (v/v) depending on the stock concentration of the chemical. The highest DMSO concentration was used as the DMSO control. The J2s were incubated in the soil and chemical for 24 hours, after which two- to three-week old tomato seedlings were transplanted into the soil (one plant per cell). Two replicates were performed for each chemical treatment, and four replicates were done for the DMSO controls. The whole experiment was replicated twice, in two different batches on two different days, for a total of four replicates for each chemical treatment, and eight replicates for the DMSO controls. Inoculated plants were grown for 8 weeks in a greenhouse, as described^73, under long-day conditions (16-h photoperiod) with 26/18° C. day/night temperatures. After 8 weeks, the plants were destructively harvested. The tops were removed and discarded, and roots were gently washed with water to remove adhering soil. Eggs were extracted by placing rinsed roots in 0.6% sodium hypochlorite and agitating at 300 rpm for 3 min. Roots were then rinsed over nested 250- and 25.4-μm sieves, with eggs collected from the latter and suspended in water. Roots were dried in a 65° C. oven for at least 24 hours, after which dry roots were weighed. The number of eggs from each plant root was counted on a dissection microscope using a haemocytometer, and the number of eggs per milligram of root was calculated by dividing the total egg number by the mass of the dried root material. An average was taken across the replicates performed on the same day, and then normalized to the DMSO control average. To calculate percent effectiveness at inhibiting reproduction, the normalized values were subtracted from 1, and then multiplied by 100. An average percent effectiveness value was then calculated across the two different batches carried out on different days.

[4] = 120 h, read-out: LC50 in strain PR1152
[5] = read-out: LC50 in strain CB1072
[6] = read-out: LC50 in strain CB3474
[7] = read-out: LC50 in strain CF1038
[8] = read-out: LC50 in strain DA1316
[9] = read-out: LC50 in strain NM1968
[10] = read-out: LC50 in strain RP2674

Row | SMILES | D. rerio LC50 [1] | LC50 [2, 4] [µM] | LC50 [2, 5] [µM] | LC50 [2, 6] [µM] | LC50 [2, 7] [µM] | LC50 [2, 8] [µM] | LC50 [2, 9] [µM] | LC50 [2, 10] [µM] | LC50 ([2]; read-out: LC50 in strain VC731) [µM] | % effectiveness at inhibiting reproduction of M. incognita [3] [%] | LC50 ([2]; read-out: LC50 in strain RB2119) [µM]
1 | Clc1ccc(-c2cn3ccsc3n2)cc1 [Ia] | inactive | 3.7 | 5.7 | 6.4 | 5.7 | 4.6 | 4.4 | 4.9 | 6.4 | 27.1 | –
2 | Fc1ccc(-c2cn3ccsc3n2)cc1 [Ib] | – | 14.9 | 24.3 | 17 | 16 | 14.5 | 16 | 16.4 | 28.5 | – | 27.5
